The source of these data is patent US20210198277A1, “AMINE-SUBSTITUTED ARYL OR HETEROARYL COMPOUNDS” (Epizyme, Inc., priority 2016, published 2021).

As a reminder, the IC50 is the concentration at which inhibition is half-maximal.

For the test, the target named is T1, EHMT2 (Homo sapiens, UniProt Q96KQ7).
T1 construct: host or cells: MDA-MB-231
T1 sequence (Q96KQ7 1-1210): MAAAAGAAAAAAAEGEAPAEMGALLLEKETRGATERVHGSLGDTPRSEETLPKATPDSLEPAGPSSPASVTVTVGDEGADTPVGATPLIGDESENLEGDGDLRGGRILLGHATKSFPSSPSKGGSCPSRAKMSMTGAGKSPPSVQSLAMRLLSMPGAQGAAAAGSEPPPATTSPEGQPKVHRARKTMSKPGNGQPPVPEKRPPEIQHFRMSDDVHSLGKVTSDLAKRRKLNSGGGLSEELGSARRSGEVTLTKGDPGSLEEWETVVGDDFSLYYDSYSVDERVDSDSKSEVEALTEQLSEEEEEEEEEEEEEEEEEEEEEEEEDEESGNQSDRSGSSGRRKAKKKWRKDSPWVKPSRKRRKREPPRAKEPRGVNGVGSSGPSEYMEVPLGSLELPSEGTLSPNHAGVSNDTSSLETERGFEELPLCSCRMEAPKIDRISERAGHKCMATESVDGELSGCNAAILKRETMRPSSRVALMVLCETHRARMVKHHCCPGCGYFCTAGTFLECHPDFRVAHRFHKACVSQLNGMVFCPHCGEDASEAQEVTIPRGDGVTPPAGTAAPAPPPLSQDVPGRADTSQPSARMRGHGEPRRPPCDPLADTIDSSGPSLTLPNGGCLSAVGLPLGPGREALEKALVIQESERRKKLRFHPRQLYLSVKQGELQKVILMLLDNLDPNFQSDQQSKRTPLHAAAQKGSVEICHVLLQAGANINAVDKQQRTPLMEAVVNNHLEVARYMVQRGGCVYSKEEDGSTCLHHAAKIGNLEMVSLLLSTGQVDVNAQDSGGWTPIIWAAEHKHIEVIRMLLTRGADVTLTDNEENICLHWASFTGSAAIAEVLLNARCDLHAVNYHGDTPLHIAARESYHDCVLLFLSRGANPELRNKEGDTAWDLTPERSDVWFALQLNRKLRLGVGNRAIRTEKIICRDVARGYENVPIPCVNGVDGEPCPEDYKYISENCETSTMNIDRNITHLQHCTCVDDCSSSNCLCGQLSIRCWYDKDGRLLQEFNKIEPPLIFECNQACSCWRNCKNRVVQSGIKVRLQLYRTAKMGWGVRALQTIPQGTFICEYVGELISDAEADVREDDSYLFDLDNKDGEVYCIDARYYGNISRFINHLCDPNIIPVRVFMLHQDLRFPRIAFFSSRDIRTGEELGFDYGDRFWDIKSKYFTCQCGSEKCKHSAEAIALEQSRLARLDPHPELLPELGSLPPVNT
Kind of test: MDA-MB-231 H3K9me2 in-cell Western assay (EHMT2 ICW). It counts as cell-based. To be noted: H3K9me2 in-cell Western, MDA-MB-231 cells; read-out: EHMT2 ICW (IC50 μM). The gist of the method:
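Steps: compound added to plate, MDA-MB-231 cells plated in RPMI with 10% FBS, incubation for 48 h at 37 °C, fixation, overnight anti-H3K9me2 staining at 4 °C, and donkey anti-mouse 800CW with DRAQ5 counterstain. IC50 values come from percent inhibition fitted with a four-parameter model.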

For the compound `COc1ncc(Nc2nc(C)cc(NCC3CCOCC3)n2)cc1OC[C@@H]1CCN(C2CCC2)C1` [Compound 595], the IC50 was in the range of 0.1 to 1 µM. To `COc1cnc(Nc2cc(C)nc3[nH]ncc23)cc1OCCCN1CCCC1` [Compound 596] belongs above 10 µM; to `C/C=C/C(=O)Nc1cc(OCCCN2CCCC2)c(OC)cn1` [Compound 597], above 10 µM; to `C/C=C/C(=O)Nc1ccc(OC)c(OCCCN2CCCC2)c1` [Compound 598], above 10 µM. To `CCN1CC[C@@H](COc2cc(Nc3nc(C)cc(NC)n3)cnc2OC)C1` [Compound 599] belongs 0.1 to 1 µM; to `CNc1cc(C)nc(Nc2ccc(OC)c(OC[C@@H]3CCNC3)c2)n1` [Compound 600], below 0.1 µM. To `CCc1cc(NC)nc(Nc2cnc(OC)c(OC[C@@H]3CCN(CC)C3)c2)n1` [Compound 601] belongs 0.1 to 1 µM; to `CCN1CC[C@@H](COc2cc(Nc3nc(C)cc(NC(C)C)n3)ccc2OC)C1` [Compound 602], 0.1 to 1 µM. For `COc1ccc(Nc2nc(C)cc(NC(C)C)n2)cc1OCCCN1CCCC1` [Compound 603], the half-inhibitory concentration (IC50) was in the range of 0.1 to 1 µM.
